These results are taken from publication PMC8580996, “2-Oxoglutarate derivatives can selectively enhance or inhibit the activity of human oxygenases” (Nature Communications, 2021).

Values joined by “and” are separate entries in the source; they are usually repeats but may differ in a detail not shown here. Equal entries are not always repeated.

In assay [1] the target is T1, FIH (Homo sapiens, UniProt Q9NWT6). Briefly: SPE-MS FIH turnover (cosubstrate) assay in the absence of 2OG. In kind it is biochemical. As to conditions: 330 μM 2OG or 2OG derivative, no 2OG, t = 15 min. The procedure, abridged: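 With 2OG omitted, 2OG analogues were tested as cosubstrates for recombinant FIH, and +16 Da hydroxylated product versus remaining substrate was monitored by C4 solid-phase extraction coupled to MS. Percent conversion came from product integral over summed substrate and product integrals.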
T1 sequence (Q9NWT6 whole entry): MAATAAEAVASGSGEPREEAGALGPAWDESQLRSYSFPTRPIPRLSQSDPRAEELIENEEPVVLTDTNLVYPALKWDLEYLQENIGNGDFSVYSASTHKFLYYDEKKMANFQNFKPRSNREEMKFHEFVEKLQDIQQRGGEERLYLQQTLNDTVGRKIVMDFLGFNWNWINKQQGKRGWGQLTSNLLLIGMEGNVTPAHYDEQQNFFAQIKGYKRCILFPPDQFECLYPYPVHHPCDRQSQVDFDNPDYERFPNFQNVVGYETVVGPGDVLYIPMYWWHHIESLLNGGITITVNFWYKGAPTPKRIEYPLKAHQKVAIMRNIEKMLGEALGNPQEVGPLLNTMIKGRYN

Assay [2] concerns the target T1, FIH. Briefly: Competition assay in a single reaction vessel, FIH-catalyzed hydroxylation (SPE-MS). The assay is classed as biochemical. Here is the method: (§1) Mean of three independent runs (n = 3; mean ± SD). […] Cosubstrates: a 20 μM 2OG; b 20 μM 2OG; c 20 μM 1; d 20 μM 12; e 20 μM 12 and 100 μM 2OG; f 100 μM 14. Source data are provided as a Source Data file.
(§2) Mean of three independent runs (n = 3; mean ± SD). […] Source data are provided as a Source Data file.
(§3) Peptide turnover was monitored by SPE-MS using the same instrument configuration (with the exception that the peptides were eluted from the SPE cartridge with 0.1%v/v aqueous formic acid in 80/20 v/v acetonitrile/water) as described above.
(§4) FIH and AspH-catalyzed peptide hydroxylations were analyzed simultaneously using SPE-MS as described in the
(§5) Methods section; competition experiments were performed in the same reaction vessel using equimolar 2OG
(§6) oxygenase and substrate concentrations. […]
(§7) Source data are provided as a Source Data file.
(§8) FIH and AspH-catalyzed peptide hydroxylations were analyzed simultaneously using SPE-
(§9) MS as described in the Methods section; competition experiments were performed in the same reaction vessel
(§10) using equimolar 2OG oxygenase and substrate concentrations. […]
(§11) 2OG, 100 μM 14. Source data are provided as a Source Data file.

Assay [3] has as its target T2, AspH (Homo sapiens, UniProt Q12797).
T2 construct: the tetratricopeptide repeat domain (His6-AspH315-758), was produced and purified as previously reported; made in house
T2 sequence (Q12797 315-758): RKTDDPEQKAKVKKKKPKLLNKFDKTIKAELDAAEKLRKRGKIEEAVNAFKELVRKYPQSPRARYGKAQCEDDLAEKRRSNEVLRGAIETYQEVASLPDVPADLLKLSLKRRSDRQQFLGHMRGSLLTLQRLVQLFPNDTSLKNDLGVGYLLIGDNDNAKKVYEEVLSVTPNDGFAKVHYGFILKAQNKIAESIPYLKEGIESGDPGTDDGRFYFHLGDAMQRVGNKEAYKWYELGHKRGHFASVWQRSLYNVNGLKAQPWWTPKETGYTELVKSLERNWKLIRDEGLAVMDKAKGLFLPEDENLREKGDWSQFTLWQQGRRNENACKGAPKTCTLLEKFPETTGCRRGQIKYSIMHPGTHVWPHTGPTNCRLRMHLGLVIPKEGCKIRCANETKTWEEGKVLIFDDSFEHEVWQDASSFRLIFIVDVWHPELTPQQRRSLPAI
Put plainly: Competition assay in a single reaction vessel, AspH-catalyzed hydroxylation (SPE-MS). In kind it is biochemical. As to conditions: for substrate hydroxylation (% conversion): AspH. As to the method: as §1, §2, §3, §4, §5, §6, §7, §8, §9, §10, §11

In assay [4] the target is T2, AspH. On the set-up: method as in PMID 34163896. The conditions noted are these: hFX-CP101–119 substrate, 330 μM 2OG or 2OG derivative, t = 15 min; cited from earlier work.

Turning to `O=C(O)CCC(=O)C(=O)O` [2OG, 2-Oxoglutarate], the “FIH activity, %-substrate conversion” value in assay [1] (CA1–20 substrate) is greater than 95%; in assay [1] (HIF-1α788–822 substrate), roughly 50%. Besides, the “substrate hydroxylation (% conversion)” value in assay [2] (Fig 2a, 20 μM 2OG, CA1-20, 0 min) is 14.1515 and 16.7791 and 11.5447; in assay [2] (Fig 2a, 20 μM 2OG, CA1-20, 0.703167 min), 47.9481 and 47.8258 and 38.5441; in assay [2] (Fig 2a, 20 μM 2OG, CA1-20, 2.10933 min), 78.9866 and 77.8293 and 70.1307; in assay [2] (Fig 2a, 20 μM 2OG, CA1-20, 2.8135 min), 85.5974 and 84.4447 and 78.5645; in assay [2] (Fig 2a, 20 μM 2OG, CA1-20, 3.51633 min), 89.6698 and 89.0396 and 84.1833; in assay [2] (Fig 2a, 20 μM 2OG, CA1-20, 4.22 min), 92.631 and 91.777 and 88.07. Besides, the “substrate hydroxylation (% conversion)” value is 94.369 and 93.7454 and 90.6935 in assay [2] (Fig 2a, 20 μM 2OG, CA1-20, 4.92317 min); 95.7579 and 95.0911 and 92.7125 in assay [2] (Fig 2a, 20 μM 2OG, CA1-20, 5.62833 min); 97.057 and 96.0828 and 94.1188 in assay [2] (Fig 2a, 20 μM 2OG, CA1-20, 6.33133 min); 97.7828 and 96.6689 and 95.1866 in assay [2] (Fig 2a, 20 μM 2OG, CA1-20, 7.03583 min); 98.8257 and 97.1902 and 95.7428 in assay [2] (Fig 2a, 20 μM 2OG, CA1-20, 7.73917 min); 99.4037 and 97.3768 and 96.3319 in assay [2] (Fig 2a, 20 μM 2OG, CA1-20, 8.444 min). Moreover, the “substrate hydroxylation (% conversion)” value in assay [2] (Fig 2a, 20 μM 2OG, CA1-20, 9.1485 min) is 99.7225 and 97.4249 and 96.6951; in assay [2] (Fig 2a, 20 μM 2OG, CA1-20, 9.853 min), 99.5637 and 97.3528 and 97.1366; in assay [2] (Fig 2a, 20 μM 2OG, CA1-20, 10.558 min) it was 100 and 97.2891 and 96.8671; in assay [2] (Fig 2a, 20 μM 2OG, CA1-20, 11.2623 min), 100 and 94.1661; in assay [2] (Fig 2a, 20 μM 2OG, HIF-1a788-822, 0.703167 min) it was 6.1581 and 8.558 and 6.1761; in assay [2] (Fig 2a, 20 μM 2OG, HIF-1a788-822, 2.10933 min), 16.8685 and 19.2149 and 14.7272. In addition, the “substrate hydroxylation (% conversion)” value was 22.0351 and 24.2966 and 18.9489 in assay [2] (Fig 2a, 20 μM 2OG, HIF-1a788-822, 2.8135 min); 26.9176 and 28.8009 and 23.0891 in assay [2] (Fig 2a, 20 μM 2OG, HIF-1a788-822, 3.51633 min); 30.085 and 33.3713 and 26.7919 in assay [2] (Fig 2a, 20 μM 2OG, HIF-1a788-822, 4.22 min); 34.7093 and 37.5052 and 30.4684 in assay [2] (Fig 2a, 20 μM 2OG, HIF-1a788-822, 4.92317 min); 37.941 and 41.581 and 34.0768 in assay [2] (Fig 2a, 20 μM 2OG, HIF-1a788-822, 5.62833 min); 40.9748 and 45.5421 and 37.689 in assay [2] (Fig 2a, 20 μM 2OG, HIF-1a788-822, 6.33133 min). Also, the “substrate hydroxylation (% conversion)” value in assay [2] (Fig 2a, 20 μM 2OG, HIF-1a788-822, 7.03583 min) was 44.2421 and 48.7776 and 41.0727; in assay [2] (Fig 2a, 20 μM 2OG, HIF-1a788-822, 7.73917 min), 46.5287 and 52.1147 and 44.2887; in assay [2] (Fig 2a, 20 μM 2OG, HIF-1a788-822, 8.444 min), 50.2071 and 55.1688 and 46.8395; in assay [2] (Fig 2a, 20 μM 2OG, HIF-1a788-822, 9.1485 min) it was 52.5573 and 57.8623 and 50.003; in assay [2] (Fig 2a, 20 μM 2OG, HIF-1a788-822, 9.853 min), 55.5664 and 60.5077 and 52.8227; in assay [2] (Fig 2a, 20 μM 2OG, HIF-1a788-822, 10.558 min), 57.4116 and 62.9095 and 55.0617. Further, the “substrate hydroxylation (% conversion)” value in assay [2] (Fig 2a, 20 μM 2OG, HIF-1a788-822, 11.2623 min) is 59.0832 and 64.3072 and 56.3348; in assay [2] (Fig 2b, 20 μM 2OG, FIH, 1.19933 min), 58.5759 and 53.8983; in assay [3] (Fig 2b, 20 μM 2OG, 1.4395 min) it was 100; in assay [3] (Fig 2b, 20 μM 2OG, 1.6805 min) it was 100; in assay [3] (Fig 2b, 20 μM 2OG, 1.9205 min), 100; in assay [3] (Fig 2b, 20 μM 2OG, 2.40217 min), 100. Moreover, the “substrate hydroxylation (% conversion)” value in assay [3] (Fig 2b, 20 μM 2OG, 2.64367 min) is on record as 100; in assay [3] (Fig 2b, 20 μM 2OG, 2.88417 min), 100; in assay [3] (Fig 2b, 20 μM 2OG, 3.1255 min) it was 100; in assay [3] (Fig 2b, 20 μM 2OG, 3.3665 min), 100; in assay [3] (Fig 2b, 20 μM 2OG, 3.60917 min) it was 100. Besides, the “conversion of CA1–20” value in assay [2] (Fig 2a, 20 μM 2OG, both FIH substrates in one vessel, after 5 min) is greater than 90%. The “conversion of HIF-1α788–822” value in assay [2] (Fig 2a, 20 μM 2OG, both FIH substrates in one vessel, after 12 min) is ~ 60%. The “FIH-catalyzed CA1–20 hydroxylation” value in assay [2] (Fig 2b, 20 μM 2OG, after 4 min) was greater than 80%. In addition, the FIH-catalyzed substrate turnover in assay [2] (Fig 4a, 0.5 mM 2OG, absence of 13, after 4 min) is ~ 80%. The “AspH-catalyzed hFX-EGFD1_86–124-4Ser hydroxylation” value in assay [3] (Fig 2b, 20 μM 2OG, within about 1 min) was greater than 95%. The “time to apparent completion of AspH substrate hydroxylation” value in assay [3] (Fig 4a, 0.5 mM 2OG, absence of 13) is recorded as ~ 1 min. This compound gave an AspH conversion in assay [3] (Supplementary Fig 8a, 20 μM 2OG, after 2 min) greater than 95%.
With `CCC(CC(=O)C(=O)O)C(=O)O` (stereo not shown) [compound 14, 4-ethyl-2OG], the “FIH activity, %-substrate conversion” value in assay [1] (CA1–20 substrate) is roughly 75%; in assay [1] (HIF-1α788–822 substrate) it was roughly 10%. Further, the “AspH-catalyzed hydroxylation of hFX-EGFD1_86–124-4Ser” value in assay [3] (Fig 2f, 100 μM 14, absence of 2OG) is listed as “not observed”. Further, in assay [3] (Supplementary Fig 27, tenfold excess of 14 over 100 μM 2OG), the AspH catalysis result is listed as “entirely suppressed”. Moreover, the “AspH activity, %-substrate conversion” value in assay [4] was less than 1%.
As to `O=C(O)C(=O)CC(CCCc1ccccc1)C(=O)O` (stereo not shown) [compound 18, 4-(3-phenylpropyl)-2OG], the “FIH activity, %-substrate conversion” value in assay [1] (CA1–20 substrate) and in assay [1] (HIF-1α788–822 substrate) was “^c<1% ^d<1%” each time. Besides, the “AspH activity, %-substrate conversion” value in assay [4] is reported as less than 1%.
`O=C(O)C(=O)C1CCC(C(=O)O)C1` (stereo not shown) [compound 22, 3-(carboxycarbonyl)cyclopentane-1-carboxylic acid]: the “FIH activity, %-substrate conversion” value in assay [1] (CA1–20 substrate) was roughly 5%; in assay [1] (HIF-1α788–822 substrate) it was roughly 2%. Moreover, in assay [4], the “AspH activity, %-substrate conversion” value is given as roughly 15%.
